Measurements: patent US20210346326A1, “COMPOSITIONS AND METHODS FOR ALTERING NEUTROPHIL MIGRATION AND METASTASIS” (The Wistar Institute of Anatomy and Biology, priority 2018, published 2021)
Like-named read-outs stand apart in the source and are kept apart here.

What was measured:
[1] = system: BM neutrophils from control mice; assay: Transwell assay of spontaneous migration of control neutrophils; assay type: cell-based, mouse
Text: (§1) FIG. 7A-FIG. 7H. PM-LC spontaneous migration is dependent upon pannexin-1 hemichannels, extracellular ATP, and P2X and P2Y receptors. (FIG. 7A) Transwell assays evaluating the ability of PM-LC from one-week LL2 mice (left) (n=3) and RET mice (right) (n=5) to spontaneously migrate upon pannexin-1 hemichannel inhibition (panx). (FIG. 7B) Transwell assays evaluating the ability of neutrophils from control mice (n=8) and PM-LC from one-week LL2 mice (n=10) to spontaneously migrate upon apyrase treatment. […] In addition, the ability of PM-LC from RET melanoma mice (n=3) to spontaneously migrate was also evaluated in the presence of P2Y inhibitors MRS2179 and AR-C118925XX. […] P values are calculated in two-sided Student's t-test. *−p<0.05; **−p<0.01; ***−p<0.001 (FIG. 7H) pMLC2 in BM neutrophils isolated from naive mice and one-week LL2 TB mice. […]
(§2) Unstimulated migration and chemotaxis was measured using a 3 μm pore transwell system (Neuro Probe Inc. or Sigma-Aldrich). […] 10 μl media was taken from the bottom wells and counted by hemocytometer. The quantification of migrated neutrophils was done using the formula N=n×10^4×0.029 reflecting 29 µl media in the bottom well.

[2] = system: PMN-MDSC from 3-week LL2 mice; assay: Transwell assay of migration of PMN-MDSC; assay type: cell-based, mouse; conditions: different concentrations of ADP
Text: as §1, §2

PM-LC = assay: Transwell assay of spontaneous migration of PM-LC; assay type: cell-based, mouse; conditions: for spontaneous migration of PM-LC: PM-LC from one-week LL2 TB mice, agent 10 min prior to plating, 1 hour
Text: FIG. 7A-FIG. 7H. PM-LC spontaneous migration is dependent upon pannexin-1 hemichannels, extracellular ATP, and P2X and P2Y receptors. (FIG. 7A) Transwell assays evaluating the ability of PM-LC from one-week LL2 mice (left) (n=3) and RET mice (right) (n=5) to spontaneously migrate upon pannexin-1 hemichannel inhibition (panx). (FIG. 7B) Transwell assays evaluating the ability of neutrophils from control mice (n=8) and PM-LC from one-week LL2 mice (n=10) to spontaneously migrate upon apyrase treatment. (FIG. 7C-FIG. 7F) Transwell assays evaluating the ability of neutrophils from control mice (n=6) and PM-LC from one-week LL2 mice (n=7) to spontaneously migrate upon pan P2R inhibitor, P2XR, P2X1, P2Y, and A3R inhibition with suramin, NF449, MRS2179, AR-C118925XX, and MRS 1191, respectively. In addition, the ability of PM-LC from RET melanoma mice (n=3) to spontaneously migrate was also evaluated in the presence of P2Y inhibitors MRS2179 and AR-C118925XX. Individual values and mean and SD are shown. (FIG. 7G) Migration of BM neutrophils from control mice (n=3) and PMN-MDSC from 3-week LL2 mice (n=3) in response to stimulation with different concentrations of ADP. Mean and SD are shown. P values are calculated in two-sided Student's t-test. *−p<0.05; **−p<0.01; ***−p<0.001 (FIG. 7H) pMLC2 in BM neutrophils isolated from naive mice and one-week LL2 TB mice. Experiments were performed three times with similar results.
Unstimulated migration and chemotaxis was measured using a 3 μm pore transwell system (Neuro Probe Inc. or Sigma-Aldrich). Advanced RPMI with CXCL1 (BioLegend) or fMLP (Sigma-Aldrich) was placed in the bottom of the transwell, as indicated. 0.1×10^6 or 0.5×10^6 cells were incubated with pannexin inhibitor (^10Panx; Tocris), scrambled ^10Panx (Tocris), pan-P2XR inhibitor suramin (R&D Systems), P2X1 inhibitor NF 449 (Tocris), A3R inhibitor MRS 1191 (Santa Cruz), or apyrase (New England Biolabs) in Advanced RPMI for 10 min prior to being plated on top of the Neuro Probe system or Sigma-Aldrich system filter, respectively, and placed at 37° C., 5% CO2 for 1 hour. 10 μl media was taken from the bottom wells and counted by hemocytometer. The quantification of migrated neutrophils was done using the formula N=n×10^4×0.029 reflecting 29 µl media in the bottom well.

pMLC2 = pMLC2 Western blot in PM-LC; assay type: cell-based, mouse; conditions: PM-LC from one-week LL2 TB mice; treated 1 hour before Western blot
Experimental: FIG. 15A-FIG. 15E. Expression of F-actin and genes associated with the glycolytic pathway. (FIG. 15A) Expression of indicated genes in neutrophils from control and RET melanoma mice measured in real-time quantitative PCR (n=3). Individual results for each mouse, mean and SD are shown. (FIG. 15B) F-actin was measured using flow cytometry before and after stimulation with CXCL1 or fMLP in BM neutrophils from indicated tumor models. Typical example of 4 experiments is shown. (FIG. 15C) F-actin in unstimulated cells evaluated by flow cytometry. Individual results for each mouse, mean and SD are shown. (FIG. 15D) F-actin in neutrophils and PMN-MDSC measured by flow cytometry (n=4). Individual results for each mouse, mean and SD are shown. Significant p values in two-sided Student's t-test are shown. (FIG. 15E) pMLC2 in neutrophils from control tumor-free and one-week LLC TB mice. Neutrophils were treated with vehicle alone or with P2Y2 inhibitor (ARC) for 1 hour before Western blot analysis. Two experiments with similar results were performed.

P2Y1 receptor = P2Y1 receptor (Homo sapiens, UniProt P47900); conditions: in vitro; cited from earlier work
P2Y1 receptor, sequence (P47900 whole entry): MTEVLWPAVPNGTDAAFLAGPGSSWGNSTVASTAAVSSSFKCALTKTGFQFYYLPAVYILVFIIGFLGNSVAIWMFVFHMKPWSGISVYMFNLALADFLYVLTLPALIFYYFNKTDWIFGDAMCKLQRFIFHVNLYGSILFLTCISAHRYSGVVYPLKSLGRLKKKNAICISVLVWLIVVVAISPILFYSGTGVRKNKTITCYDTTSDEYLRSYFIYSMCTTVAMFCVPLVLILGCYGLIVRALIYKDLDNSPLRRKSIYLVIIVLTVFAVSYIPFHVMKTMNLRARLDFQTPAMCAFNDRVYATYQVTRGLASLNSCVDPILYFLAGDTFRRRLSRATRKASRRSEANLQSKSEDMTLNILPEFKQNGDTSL

[3] = rats, compared to controls; cited from earlier work
[4] = mice, compared to controls; cited from earlier work
[5] = system: P2 receptors such as P2X3, P2Y1, and P2Y2, P2X1; conditions: cited from earlier work

Nc1ncnc2c1ncn2[C@@H]1O[C@H](COP(=O)(O)OP(=O)(O)O)[C@@H](O)[C@H]1O [ADP]
migration of control neutrophils on stimulation ([1]; BM neutrophils from control mice, different concentrations of ADP): significantly increased migration | migration of PMN-MDSC on stimulation [2]: significantly increased migration

Cc1ccc2c(c1)C=Cc1cc(C)ccc1C2c1cn(Cc2ccc(C(=O)Nc3nn[nH]n3)o2)c(=O)[nH]c1=S [AR-C118925XX, 5-[[5-(2,8-Dimethyl-5H-dibenzo[a,d]cyclohepten-5-yl)-3,4-dihydro-2-oxo-4-thioxo-1(2H)-pyrimidinyl]methyl]-N-2H-tetrazol-5-yl-2-furancarboxamide]
spontaneous migration of PM-LC (PM-LC): completely abrogated the increased spontaneous migration | up-regulation of pMLC2 in PM-LC (pMLC2): abrogated

CNc1ncnc2c1ncn2[C@H]1C[C@H](OP(=O)(O)O)[C@@H](COP(=O)(O)O)O1.N [MRS2179, 3′-adenylic acid, 2′-deoxy-N-methyl-5′-(dihydrogen phosphate), ammonium salt]
spontaneous migration of PM-LC (PM-LC): completely abrogated the increased spontaneous migration | pA2, inhibition of ADP-induced platelet shape change and aggregation (P2Y1 receptor): 6.55 | bleeding time [3]: prolongs bleeding time | bleeding time [4]: prolongs bleeding time

CCOC(=O)C1=C(C)NC(c2ccccc2)=C(C(=O)OCc2ccccc2)C1C#Cc1ccccc1 (centres unmarked) [MRS 1191]
spontaneous migration of PM-LC (PM-LC): did not affect

O=C(Nc1cc(C(=O)Nc2ccc(S(=O)(=O)[O-])cc2S(=O)(=O)[O-])cc(C(=O)Nc2ccc(S(=O)(=O)[O-])cc2S(=O)(=O)[O-])c1)Nc1cc(C(=O)Nc2ccc(S(=O)(=O)[O-])cc2S(=O)(=O)[O-])cc(C(=O)Nc2ccc(S(=O)(=O)[O-])cc2S(=O)(=O)[O-])c1.[Na+].[Na+].[Na+].[Na+].[Na+].[Na+].[Na+].[Na+] [NF449, 4,4′,4″,4″′-[Carbonylbis(imino-5,1,3-benzenetriyl-bis(carbonylimino))]tetrakis-1,3-benzen edisulfonic acid octasodium salt]
inhibition of the ability of PM-LCs to spontaneously migrate (PM-LC; PM-LC from one-week LL2 mice): 50% | selectivity among P2 receptors [5]: highest selectivity towards P2X1

Cc1ccc(C(=O)Nc2ccc(S(=O)(=O)O)c3cc(S(=O)(=O)O)cc(S(=O)(=O)O)c23)cc1NC(=O)c1cccc(NC(=O)Nc2cccc(C(=O)Nc3cc(C(=O)Nc4ccc(S(=O)(=O)O)c5cc(S(=O)(=O)O)cc(S(=O)(=O)O)c45)ccc3C)c2)c1 [suramin]
spontaneous migration of PM-LC (PM-LC): completely abrogated

apyrase
spontaneous migration of PM-LC (PM-LC): completely abrogated | spontaneous migration of control neutrophils ([1]; neutrophils from control mice, Transwell): completely abrogated
